Test results published in patent publication US20090170937A1, “Amino Acid Derivatives” (Proximagen Ltd., priority 2006, published 2009).
Non-standard residues stand in square brackets, D forms with d. Residues, ends and D or L forms follow the SMILES beside them. *: point of attachment. Dopa = N[C@@H](Cc1ccc(O)c(O)c1)C(=O)O; αMeF = C[C@](N)(Cc1ccccc1)C(=O)O; Aic = NC1(C(=O)O)Cc2ccccc2C1; Ac6c = NC1(C(=O)O)CCCCC1; Ac5c = NC1(C(=O)O)CCCC1; Ac4c = NC1(C(=O)O)CCC1; Ac3c = NC1(C(=O)O)CC1; Aib = CC(C)(N)C(=O)O; OcHex = C1CCC(O*)CC1; OBn = c1ccc(CO*)cc1; OiPr = CC(C)O*

Test system: 6-OHDA-lesioned rats
Assay: Induction of rotational activity in 6-OHDA-lesioned rats
Format: in vivo, Male Wistar rats
Settings: i.p., 63.4 μmole/kg, after benserazide 10 mg/kg; active = >10 turns per 10 minutes

| Compound | duration of activity (as % of L-DOPA duration of activity) [%] |
| --- | --- |
| COC(=O)[C@H](Cc1ccc(O)c(O)c1)NC(=O)C(C)(C)N.Cl [Example 1, 1-[(S)-2-(3,4-Dihydroxyphenyl)-1-methoxycarbonylethylcarbamoyl]-1-methyl-ethylammonium Chloride] (H-[Aib]-[Dopa]-OMe) | 63 |

Same assay, conditions: p.o., 63.4 μmole/kg, after benserazide 10 mg/kg; active = >10 turns per 10 minutes

| Compound | duration of activity (as % of L-DOPA duration of activity) [%] |
| --- | --- |
| COC(=O)[C@H](Cc1ccc(OC(C)=O)c(OC(C)=O)c1)NC(=O)C(C)(C)N.Cl [Example 2, 1-[(S)-2-(3,4-Diacetoxyphenyl)-1-methoxycarbonylethylcarbamoyl]-1-methyl-ethylammonium Chloride] | 73 |
| CC(C)(N)C(=O)N[C@@H](Cc1ccc(O)c(O)c1)C(=O)OCc1ccccc1.Cl [Example 3, 1-[(S)-1-Benzyloxycarbonyl-2-(3,4-dihydroxyphenyl)-ethylcarbamoyl]-1-methyl-ethylammonium Chloride] (H-[Aib]-[Dopa]-OBn) | 38 |
| COC(=O)[C@H](Cc1ccc(O)c(O)c1)NC(=O)C1(N)CCCCC1.Cl [Example 4, 1-[(S)-2-(3,4-Dihydroxy-phenyl)-1-methoxycarbonyl-ethylcarbamoyl]-cyclohexyl-ammonium Chloride] (H-[Ac6c]-[Dopa]-OMe) | 84 |
| COC(=O)[C@H](Cc1ccc(OC(C)=O)c(OC(C)=O)c1)NC(=O)C1(N)CCCCC1.Cl [Example 5, 1-[(S)-2-(3,4-Diacetoxyphenyl)-1-methoxycarbonylethylcarbamoyl]-cyclohexyl-ammonium Chloride] | 42 |
| CC(C)(N)C(=O)N[C@@H](Cc1ccc(O)c(O)c1)C(=O)O.Cl [Example 6, 1-[(S)-1-Carboxy-2-(3,4-dihydroxyphenyl)-ethylcarbamoyl]-1-methylethyl-ammonium Chloride] (H-[Aib]-[Dopa]-OH) | 57 |
| COC(=O)[C@H](Cc1ccc(O)c(O)c1)NC(=O)C1(N)CCCC1.Cl [Example 7, 1-[(S)-2-(3,4-Dihydroxyphenyl)-1-methoxycarbonylethylcarbamoyl]-cyclopentyl-ammonium Chloride] (H-[Ac5c]-[Dopa]-OMe) | 97 |
| COC(=O)[C@H](Cc1ccc(OC(C)=O)c(OC(C)=O)c1)NC(=O)C1(N)CCCC1.Cl [Example 8, 1-[(S)-2-(3,4-Diacetoxyphenyl)-1-methoxycarbonylethylcarbamoyl]-cyclopentyl-ammonium Chloride] | 44 |
| CC(=O)Oc1ccc(C[C@H](NC(=O)C(C)(C)N)C(=O)O)cc1OC(C)=O.Cl [Example 9, 1-[(S)-1-Carboxy-2-(3,4-diacetoxyphenyl)-ethylcarbamoyl]-1-methylethyl-ammonium Chloride] | 45 |
| COC(=O)[C@H](Cc1ccc(O)c(O)c1)NC(=O)C1(N)CCC1.Cl [Example 10] (H-[Ac4c]-[Dopa]-OMe) | 73 |
| COC(=O)[C@H](Cc1ccc(OC(C)=O)c(OC(C)=O)c1)NC(=O)C1(N)CCC1.Cl [Example 11, 1-[(S)-2-(3,4-Diacetoxyphenyl)-1-methoxycarbonylethylcarbamoyl]-cyclobutyl-ammonium Chloride] | 67 |
| COC(=O)[C@H](Cc1ccc(O)c(O)c1)NC(=O)[C@@](C)(N)Cc1ccccc1.Cl [Example 12, (S)-1-[(S)-2-(3,4-Dihydroxyphenyl)-1-methoxycarbonyl-ethylcarbamoyl]-1-methyl-2-phenylethylammonium Chloride] (H-[αMeF]-[Dopa]-OMe) | 52 |
| C[C@](N)(Cc1ccccc1)C(=O)N[C@@H](Cc1ccc(O)c(O)c1)C(=O)O.Cl [Example 13, (S)-1-[(S)-1-Carboxy-2-(3,4-dihydroxyphenyl)-ethylcarbamoyl]-1-methyl-2-phenylethylammonium Chloride] (H-[αMeF]-[Dopa]-OH) | 40 |
| Cl.NC1(C(=O)N[C@@H](Cc2ccc(O)c(O)c2)C(=O)O)CCCC1 [Example 14, 1-[(S)-1-Carboxy-2-(3,4-dihydroxyphenyl)-ethylcarbamoyl]-cyclopentyl-ammonium Chloride] (H-[Ac5c]-[Dopa]-OH) | 62 |
| COC(=O)[C@H](Cc1ccc(O)c(O)c1)NC(=O)C1(N)Cc2ccccc2C1.Cl [Example 15, 2-[(S)-2-(3,4-Dihydroxyphenyl)-1-methoxycarbonylethylcarbamoyl]-indan-2-yl-ammonium Chloride] (H-[Aic]-[Dopa]-OMe) | 31 |
| COC(=O)[C@H](Cc1ccc(OC(C)=O)c(OC(C)=O)c1)NC(=O)C1(N)Cc2ccccc2C1.Cl [Example 16, 2-[(S)-2-(3,4-Diacetoxyphenyl)-1-methoxycarbonylethylcarbamoyl]-indan-2-yl-ammonium Chloride] | 21 |
| CC(C)OC(=O)[C@H](Cc1ccc(O)c(O)c1)NC(=O)C(C)(C)N.Cl [Example 17, 1-[(S)-2-(3,4-Dihydroxyphenyl)-1-isopropoxycarbonylethylcarbamoyl]-1-methyl-ethylammonium Chloride] (H-[Aib]-[Dopa]-OiPr) | 72 |
| CC(C)(N)C(=O)N[C@@H](Cc1ccc(O)c(O)c1)C(=O)OC1CCCCC1.Cl [Example 18] (H-[Aib]-[Dopa]-OcHex) | 70 |
| Cl.NC1(C(=O)N[C@@H](Cc2ccc(O)c(O)c2)C(=O)O)CCC1 [Example 20, 1-[(S)-1-Carboxy-2-(3,4-dihydroxyphenyl)-ethylcarbamoyl]-cyclobutyl-ammonium Chloride] (H-[Ac4c]-[Dopa]-OH) | 37 |
| Cl.NC1(C(=O)N[C@@H](Cc2ccc(O)c(O)c2)C(=O)O)CC1 [Example 21, 1-[(S)-1-Carboxy-2-(3,4-dihydroxyphenyl)-ethylcarbamoyl]-cyclopropyl Ammonium Chloride] (H-[Ac3c]-[Dopa]-OH) | 76 |
| COC(=O)[C@H](Cc1ccc(OC(C)=O)c(OC(C)=O)c1)NC(=O)[C@@](C)(N)Cc1ccccc1.Cl [Example 22, (S)-1-[(S)-2-(3,4-Diacetoxyphenyl)-1-methoxycarbonylethylcarbamoyl]-1-methyl-2-phenylethylammonium Chloride] | 19 |
| CC(C)CCOC(=O)[C@H](Cc1ccc(O)c(O)c1)NC(=O)C(C)(C)N.Cl [Example 23, 1-[(S)-2-(3,4-Dihydroxyphenyl)-1-(3-methylbutoxycarbonyl)-ethylcarbamoyl]-1-methylethylammonium Chloride] | 49 |
| COC(=O)[C@H](Cc1ccc(OC(=O)CC(C)(C)C)c(OC(=O)CC(C)(C)C)c1)NC(=O)C1(N)CCCCC1.Cl [Example 24, 1-{(S)-2-[3,4-Bis-(3,3-dimethylbutyryloxy)-phenyl]-1-methoxycarbonyl-ethylcarbamoyl}-cyclohexylammonium Chloride] | 36 |
